Data from US7491794B2, “Macrocyclic compounds as inhibitors of viral replication” (Intermune, Inc., priority 2003, dated 2009).
Like-named read-outs stand apart in the source and are kept apart here.

Experiments:
NS3-NS4A protease = biological target: T1, NS3-NS4A protease (Hepatitis C virus genotype 1a, UniProt P27958); assay: NS3-NS4A protease assay (NS3 inhibition assay, RETS1 substrate), Section B; assay type: biochemical
T1 construct: Recombinant E. coli or Baculovirus full-length NS3 was diluted to 3.33 μM with assay buffer; made in house; host or cells: E. coli or baculovirus (BV) system
T1 sequence (P27958 1027-1657): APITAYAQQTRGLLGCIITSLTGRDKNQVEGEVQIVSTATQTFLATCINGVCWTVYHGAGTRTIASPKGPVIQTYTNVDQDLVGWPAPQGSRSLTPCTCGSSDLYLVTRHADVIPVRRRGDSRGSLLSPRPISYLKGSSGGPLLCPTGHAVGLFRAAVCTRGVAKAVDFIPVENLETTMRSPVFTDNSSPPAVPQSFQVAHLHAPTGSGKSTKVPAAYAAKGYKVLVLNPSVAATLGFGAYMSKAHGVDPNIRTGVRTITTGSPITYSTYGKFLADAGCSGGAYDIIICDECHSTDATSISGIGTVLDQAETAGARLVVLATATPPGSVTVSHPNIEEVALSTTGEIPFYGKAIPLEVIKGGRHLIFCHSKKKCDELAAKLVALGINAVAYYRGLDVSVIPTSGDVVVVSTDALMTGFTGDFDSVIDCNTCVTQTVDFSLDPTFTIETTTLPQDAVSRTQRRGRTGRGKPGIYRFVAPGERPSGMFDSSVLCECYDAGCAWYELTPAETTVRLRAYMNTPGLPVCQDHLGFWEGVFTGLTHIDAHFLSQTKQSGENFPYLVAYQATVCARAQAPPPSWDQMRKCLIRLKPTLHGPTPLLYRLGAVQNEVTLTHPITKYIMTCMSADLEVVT
Method in brief: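 Full-length NS3 (E. coli or baculovirus) precomplexed with excess NS4A-2 peptide, run at 2 nM (E. coli) or 3 nM (BV) NS3; compounds pre-incubated 10 min at room temperature before RETS1 substrate. Fluorescence (ex 335/em 495 nm) read kinetically 30 min; IC50 from four-parameter fit, converted to Ki via Ki=IC50/(1+[S]/Km).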

[1] = system: HCV sub-genomic replicon, GS4.3; assay: Quantitation by ELISA of NPTII in the HCV sub-genomic replicon, GS4.3, Section B; assay type: cell-based; conditions: Hepatitis C virus; GS4.3 cells, 72 h incubation; read-out: Replicon EC50
Method in brief: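 GS4.3 cells (HuH-7 carrying HCV 1377/NS3-3′ replicon) were treated 72 h at 37 °C with inhibitors in 3-fold dilutions, 1% DMSO, no G418. Lysate NPTII was measured by ELISA (TMB, 450 nm). Signal as % of DMSO control; EC50 from 4-parameter fit.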

With `CC(C)(C)CC(=O)N[C@H]1CCCCC/C=C\[C@@H]2C[C@@]2(C(=O)NS(=O)(=O)C2CC2)NC(=O)[C@@H]2C[C@@H](OC(=O)N3Cc4cccc(F)c4C3)CN2C1=O` [AR00338070, (1S,4R,6S,14S,18R)-4-Fluoro-1,3-dihydro-isoindole-2-carboxylic acid 4-cyclopropanesulfonylaminocarbonyl-14-(3,3-dimethyl-butyrylamino)-2,15-dioxo-3,16-diaza-tricyclo[14.3.0.0^4,6]nonadec-7-en-18-yl ester] the IC50 (NS3-NS4A protease; read-out: NS3-NS4A IC50) was < 100 nM and the EC50 [1] was < 100 nM.
With `O=C(CCC(F)(F)F)N[C@H]1CCCCC/C=C\[C@@H]2C[C@@]2(C(=O)NS(=O)(=O)C2CC2)NC(=O)[C@@H]2C[C@@H](OC(=O)N3Cc4cccc(F)c4C3)CN2C1=O` [AR00338071, (1S,4R,6S,14S,18R)-4-Fluoro-1,3-dihydro-isoindole-2-carboxylic acid 4-cyclopropanesulfonylaminocarbonyl-2,15-dioxo-14-(4,4,4-trifluoro-butyrylamino)-3,16-diaza-tricyclo[14.3.0.0^4,6]nonadec-7-en-18-yl ester] the IC50 (NS3-NS4A protease; read-out: NS3-NS4A IC50) was < 100 nM and the EC50 [1] was < 100 nM.
With `CC(=O)N[C@H](C(=O)N[C@H]1CCCCC/C=C\[C@@H]2C[C@@]2(C(=O)NS(=O)(=O)C2CC2)NC(=O)[C@@H]2C[C@@H](OC(=O)N3Cc4cccc(F)c4C3)CN2C1=O)C1CCCCC1` [AR00340122, (1S,4R,6S,14S,18R)-4-Fluoro-1,3-dihydro-isoindole-2-carboxylic acid 14-(2-acetylamino-2-cyclohexyl-acetylamino)-4-cyclopropanesulfonylaminocarbonyl-2,15-dioxo-3,16-diaza-tricyclo[14.3.0.0^4,6]nonadec-7-en-18-yl ester] the IC50 (NS3-NS4A protease) was < 100 nM and the EC50 [1] was < 1000 nM.
For `COc1ccc(CC(=O)N[C@H]2CCCCC/C=C\[C@@H]3C[C@@]3(C(=O)NS(=O)(=O)C3CC3)NC(=O)[C@@H]3C[C@@H](OC(=O)N4Cc5cccc(F)c5C4)CN3C2=O)cc1` [AR00340156, (1S,4R,6S,14S,18R)-4-Fluoro-1,3-dihydro-isoindole-2-carboxylic acid 4-cyclopropanesulfonylaminocarbonyl-14-[2-(4-methoxy-phenyl)-acetylamino]-2,15-dioxo-3,16-diaza-tricyclo[14.3.0.0^4,6]nonadec-7-en-18-yl ester], the IC50 (NS3-NS4A protease; read-out: NS3-NS4A IC50) was < 100 nM and the EC50 [1] was < 1000 nM.
For `CC(C)(C)OC(=O)N[C@H]1CCCCC/C=C\[C@@H]2C[C@@]2(C(=O)NS(=O)(=O)c2ccc(Cl)s2)NC(=O)[C@@H]2C[C@@H](OC(=O)N3Cc4ccc(Cl)cc4C3)CN2C1=O` [AR00340173, (1S,4R,6S,14S,18R)-5-Chloro-1,3-dihydro-isoindole-2-carboxylic acid 14-tert-butoxycarbonylamino-4-(5-chloro-thiophene-2-sulfonylaminocarbonyl)-2,15-dioxo-3,16-diaza-tricyclo[14.3.0.0^4,6]nonadec-7-en-18-yl ester], the IC50 (NS3-NS4A protease; read-out: NS3-NS4A IC50) was < 100 nM and the EC50 [1] was < 10000 nM.
With `COc1cccc(CC(=O)N[C@H]2CCCCC/C=C\[C@@H]3C[C@@]3(C(=O)NS(=O)(=O)C3CC3)NC(=O)[C@@H]3C[C@@H](OC(=O)N4Cc5cccc(F)c5C4)CN3C2=O)c1` [AR00340178, (1S,4R,6S,14S,18R)-4-Fluoro-1,3-dihydro-isoindole-2-carboxylic acid 4-cyclopropanesulfonylaminocarbonyl-14-[2-(3-methoxy-phenyl)-acetylamino]-2,15-dioxo-3,16-diaza-tricyclo[14.3.0.0^4,6]nonadec-7-en-18-yl ester] the IC50 (NS3-NS4A protease; read-out: NS3-NS4A IC50) was < 100 nM and the EC50 [1] was < 100 nM.
With `O=C(Cc1ccccc1)N[C@H]1CCCCC/C=C\[C@@H]2C[C@@]2(C(=O)NS(=O)(=O)C2CC2)NC(=O)[C@@H]2C[C@@H](OC(=O)N3Cc4cccc(F)c4C3)CN2C1=O` [AR00340188, (1S,4R,6S,14S,18R)-4-Fluoro-1,3-dihydro-isoindole-2-carboxylic acid 4-cyclopropanesulfonylaminocarbonyl-2,15-dioxo-14-phenylacetylamino-3,16-diaza-tricyclo[14.3.0.0^4,6]nonadec-7-en-18-yl ester] the IC50 (NS3-NS4A protease; read-out: NS3-NS4A IC50) was < 100 nM and the EC50 [1] was < 1000 nM.
For `O=C(N[C@H](C(=O)N[C@H]1CCCCC/C=C\[C@@H]2C[C@@]2(C(=O)NS(=O)(=O)C2CC2)NC(=O)[C@@H]2C[C@@H](OC(=O)N3Cc4cccc(F)c4C3)CN2C1=O)C1CCCCC1)c1cnccn1` [AR00340303, (1S,4R,6S,14S,18R)-4-Fluoro-1,3-dihydro-isoindole-2-carboxylic acid 14-{2-cyclohexyl-2-[(pyrazine-2-carbonyl)-amino]-acetylamino}-4-cyclopropanesulfonylaminocarbonyl-2,15-dioxo-3,16-diaza-tricyclo[14.3.0.0^4,6]nonadec-7-en-18-yl ester], the IC50 (NS3-NS4A protease) was < 100 nM and the EC50 [1] was < 1000 nM.
With `CC(C)(C)OC(=O)N[C@H]1CCCCC/C=C\[C@@H]2C[C@@]2(C(=O)NS(=O)(=O)C(F)(F)F)NC(=O)[C@@H]2C[C@@H](OC(=O)N3Cc4ccccc4C3)CN2C1=O` [AR00340479, (1S,4R,6S,14S,18R)-1,3-Dihydro-isoindole-2-carboxylic acid 14-tert-butoxycarbonylamino-2,15-dioxo-4-trifluoromethanesulfonylaminocarbonyl-3,16-diaza-tricyclo[14.3.0.0^4,6]nonadec-7-en-18-yl ester] the IC50 (NS3-NS4A protease; read-out: NS3-NS4A IC50) was < 100 nM and the EC50 [1] was < 100 nM.
In the case of `CC(C)(C)OC(=O)N[C@H]1CCCCC/C=C\[C@@H]2C[C@@]2(C(=O)NS(=O)(=O)C2CC2)NC(=O)[C@@H]2C[C@@H](OC(=O)N3Cc4ccc(N5CCOCC5)cc4C3)CN2C1=O` [AR00340494, (1S,4R,6S,14S,18R)-5-Morpholin-4-yl-1,3-dihydro-isoindole-2-carboxylic acid 14-tert-butoxycarbonylamino-4-cyclopropanesulfonylaminocarbonyl-2,15-dioxo-3,16-diaza-tricyclo[14.3.0.0^4,6]nonadec-7-en-18-yl ester], the IC50 (NS3-NS4A protease; read-out: NS3-NS4A IC50) is reported as < 100 nM and the EC50 [1] is reported as < 100 nM.
`CN1CCN(c2ccc3c(c2)CN(C(=O)O[C@@H]2C[C@H]4C(=O)N[C@]5(C(=O)NS(=O)(=O)C6CC6)C[C@H]5/C=C\CCCCC[C@H](NC(=O)OC(C)(C)C)C(=O)N4C2)C3)CC1` [AR00340495, (1S,4R,6S,14S,18R)-5-(4-Methyl-piperazin-1-yl)-1,3-dihydro-isoindole-2-carboxylic acid 14-tert-butoxycarbonylamino-4-cyclopropanesulfonylaminocarbonyl-2,15-dioxo-3,16-diaza-tricyclo[14.3.0.0^4,6]nonadec-7-en-18-yl ester] was tested, and the IC50 (NS3-NS4A protease; read-out: NS3-NS4A IC50) was < 100 nM and the EC50 [1] was < 100 nM.
With `CC(C)(C)OC(=O)N[C@H]1CCCCC/C=C\[C@@H]2C[C@@]2(C(=O)NS(=O)(=O)C2CC2)NC(=O)[C@@H]2C[C@@H](OC(=O)N3Cc4ccc(Br)cc4C3)CN2C1=O` [AR00340526, (1S,4R,6S,14S,18R)-5-Bromo-1,3-dihydro-isoindole-2-carboxylic acid 14-tert-butoxycarbonylamino-4-cyclopropanesulfonylaminocarbonyl-2,15-dioxo-3,16-diaza-tricyclo[14.3.0.0^4,6]nonadec-7-en-18-yl ester] the IC50 (NS3-NS4A protease; read-out: NS3-NS4A IC50) was < 100 nM and the EC50 [1] was < 100 nM.
With `CC(C)Nc1ccc2c(c1)CN(C(=O)O[C@@H]1C[C@H]3C(=O)N[C@]4(C(=O)NS(=O)(=O)C5CC5)C[C@H]4/C=C\CCCCC[C@H](NC(=O)OC(C)(C)C)C(=O)N3C1)C2` [AR00341649, (1S,4R,6S,14S,18R)-5-Isopropylamino-1,3-dihydro-isoindole-2-carboxylic acid 14-tert-butoxycarbonylamino-4-cyclopropanesulfonylaminocarbonyl-2,15-dioxo-3,16-diaza-tricyclo[14.3.0.0^4,6]nonadec-7-en-18-yl ester] the IC50 (NS3-NS4A protease; read-out: NS3-NS4A IC50) was < 100 nM and the EC50 [1] was < 100 nM.
For `CC(C)(C)OC(=O)N[C@H]1CCCCC/C=C\[C@@H]2C[C@@]2(C(=O)NS(=O)(=O)C2CC2)NC(=O)[C@@H]2C[C@@H](OC(=O)N3Cc4ccc(OCCOC(=O)N5CCOCC5)cc4C3)CN2C1=O` [AR00345032, (1S,4R,6S,14S,18R)-5-[2-(Morpholine-4-carbonyloxy)-ethoxy]-1,3-dihydro-isoindole-2-carboxylic acid 14-tert-butoxycarbonylamino-4-cyclopropanesulfonylaminocarbonyl-2,15-dioxo-3,16-diaza-tricyclo[14.3.0.0^4,6]nonadec-7-en-18-yl ester], the IC50 (NS3-NS4A protease; read-out: NS3-NS4A IC50) was < 100 nM and the EC50 [1] was < 100 nM.
With `CC(C)(C)OC(=O)N[C@H]1CCCCC/C=C\[C@@H]2C[C@@]2(C(=O)NS(=O)(=O)C2CC2)NC(=O)[C@@H]2C[C@@H](OC(=O)N3Cc4ccc(OCCCN5CCOCC5)cc4C3)CN2C1=O` [AR00345075, (1S,4R,6S,14S,18R)-5-(3-Morpholin-4-yl-propoxy)-1,3-dihydro-isoindole-2-carboxylic acid 14-tert-butoxycarbonylamino-4-cyclopropanesulfonylaminocarbonyl-2,15-dioxo-3,16-diaza-tricyclo[14.3.0.0^4,6]nonadec-7-en-18-yl ester] the IC50 (NS3-NS4A protease; read-out: NS3-NS4A IC50) was < 100 nM and the EC50 [1] was < 1000 nM.
With `CC(C)(C)OC(=O)N[C@H]1CCCCC/C=C\[C@@H]2C[C@@]2(C(=O)NS(=O)(=O)C2CC2)NC(=O)[C@@H]2C[C@@H](OC(=O)N3Cc4ccc(OCCN5CCOCC5)cc4C3)CN2C1=O` [AR00345090, (1S,4R,6S,14S,18R)-5-(2-Morpholin-4-yl-ethoxy)-1,3-dihydro-isoindole-2-carboxylic acid 14-tert-butoxycarbonylamino-4-cyclopropanesulfonylaminocarbonyl-2,15-dioxo-3,16-diaza-tricyclo[14.3.0.0^4,6]nonadec-7-en-18-yl ester] the IC50 (NS3-NS4A protease; read-out: NS3-NS4A IC50) was < 100 nM and the EC50 [1] was < 100 nM.
